Where a SMILES comes first, the peptide text is derived from it. Where no end group is shown, it is not given here. The star is where a group is joined. For = O=C*
Experiments:
FPRL1-GFP fusion protein = test: Intracellular transition (internalization) of FPRL1-GFP fusion protein expressed in CHO cells; type: cell-based, human; details: 37° C., one hour, Cellomics ArrayScan
Method: CHO cell line, in which a protein, wherein GFP (Green Fluorescent Protein) is fused to the C-terminus of human FPRL1, is stably expressed, was established using an expression plasmid for animal cells by publicly known method. For assay of intracellular transition of the protein, the cells at growth phase was seeded at the concentration of 40000 cells/well on 96-well plate (Packard, View-Plate™-96, Black), and cultured for overnight at 37° C. under 5% CO2. Firstly, the cells into the well were washed with assay buffer (HBSS (GibcoBRL) supplemented with 0.1% bovine serum albumin (BSA)). Then, 100 μl of the assay buffer containing a test sample were added to the well and incubated at 37° C. under 5% CO2 for one hour. Subsequently, 100 μl/well of cell fixation solution (PBS containing 4% paraformaldehyde (Ca/Mg free)) were added to the well and stood at room temperature for 30 minutes. After removing the cell fixation solution and washing the cells with Ca/Mg free PBS, a labeling solution (3.13 μg/ml of wheat germ aggulutinin (Molecular Probe, W-849) and 5 μg/ml of Hoechst-containing Ca/Mg free PBS) was added (50 μl/well) and stood at room temperature for 20 minutes. After removing the labeling solution, the cells were washed with Ca/Mg free PBS (200 μl/well) to replace the same (200 μl/well). […]

[1] = system: FPRL1-GFP fusion protein-expressing CHO cells; test: Cell migration stimulating activity to FPRL1-GFP fusion protein-expressing CHO cells; type: cell-based, human; details: chemotaxis chamber, 37° C., 4 hours, FIG. 24
Method: Using FPRL1-GFP fusion protein-expressing CHO cells, which are described in Example 18, a cell migration activity of the above cells by stimulation using formylated peptide was investigated.
The 96-well disposable chemotaxis chamber (ChemoTx-96, Neuro Probe) was used for assay. Firstly, to bottom well of the chamber, a test sample diluted with DMEM (Invitrogen) containing 0.5% BSA was added. Then, a polycarbonate filter, which is precoated with 10 μg/ml bovine fibronectin (Yagai) on both sides, was fixed on the chamber, and contacted with the test sample. Next, suspension for FPRL1-GFP fusion protein-expressing CHO cells was put onto the filter at 96-well site as a droplet. The chamber was covered, and cultured at 37° C. for 4 hours under conditions of 5% CO2. The cell suspension was prepared as follows: the aforementioned CHO cells at growth phase, which had been precultured in 150 cm^2 flask for culture, were peal off using trypsin/EDTA; the cell suspension obtained was centrifuged to get cell precipitation; and after washing with PBS once, the cells were resuspended in DMEM medium containing 0.5% BSA at the concentration of 3.6×10^6 cells/ml. […] For this filter, absorbance at 595 nm was measured using microplate reader.

human FPRL1 = target: T1, human FPRL1 (Homo sapiens, UniProt P25090); test: Inhibiting activity for intracellular cAMP production in human FPRL1-expressing CHO cells; type: cell-based; details: comparison of purified ligand and chemical preparation, FIG. 14
T1 construct: expressed in transfected cells; host or cells: CHO cells (clone No. 8)
T1 sequence (P25090 1-351): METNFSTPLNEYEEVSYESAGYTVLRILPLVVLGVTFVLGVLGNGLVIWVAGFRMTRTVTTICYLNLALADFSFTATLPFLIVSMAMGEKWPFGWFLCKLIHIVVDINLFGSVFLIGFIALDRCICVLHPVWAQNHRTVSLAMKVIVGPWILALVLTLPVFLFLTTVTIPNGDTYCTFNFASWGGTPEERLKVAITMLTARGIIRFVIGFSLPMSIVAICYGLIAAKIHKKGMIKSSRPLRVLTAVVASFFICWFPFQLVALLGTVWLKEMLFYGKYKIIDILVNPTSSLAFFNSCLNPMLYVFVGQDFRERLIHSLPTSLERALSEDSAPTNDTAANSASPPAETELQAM
From the text: The term “Peptide (nM)” on horizontal axis and “Inhibition (5)” on vertical axis means a concentration of peptide (nM) and an inhibiting activity for intracellular cAMP production (Inhibition (%)), respectively. Closed triangle represents an activity of the intrinsic FPRL1 ligand P1, which has been purified in Example 7. It is derived from fr. 24-25 of the final purified preparation uRPC C2/C18 SC2.1/10. The concentration for peptide is deduced from the absorbance at 215 nm of final purification chromatogram. Closed circle indicates an activity of 16 amino acid peptide containing N-terminal fifteen amino acids of porcine cytochrome B, at which synthetic N-terminus is formylated (formyl-MTNIRKSHPLMKIINN).
Activity of porcine intrinsic FPRL1 ligand P1, which was purified in Example 7, and activity of 16 amino acid-peptide (formyl-MTNIRKSHPLMKIINN, SEQ ID NO: 18), comprising 15 amino acids at N-terminus of N-terminally formylated porcine cytochrome B, wherein the sequence was deduced from structure analysis, were compared using an inhibiting activity for intracellular cAMP production in human […] CHO cells as an index (FIG. 14).

Row | Compound | intracellular transition of FPRL1-GFP protein (MemCyto Above Threshold) (FPRL1-GFP fusion protein) | cell migration stimulating activity (absorbance at 595 nm) [1] | inhibiting activity for intracellular cAMP production (human FPRL1)
1 | CSCC[C@H](NC=O)C(=O)N[C@@H](Cc1ccccc1)C(=O)N[C@@H](C)C(=O)N[C@@H](CC(=O)O)C(=O)N[C@@H](CCCNC(=N)N)C(=O)N[C@@H](Cc1c[nH]c2ccccc12)C(=O)N[C@@H](CC(C)C)C(=O)N[C@@H](Cc1ccccc1)C(=O)N[C@@H](CO)C(=O)N[C@H](C(=O)N[C@@H](CC(N)=O)C(=O)N[C@@H](Cc1c[nH]cn1)C(=O)N[C@@H](CCCCN)C(=O)O)[C@@H](C)O [hfCYOX-1(1-13)] (For-MFADRWLFSTNHK-OH; C-terminus assumed) | concentration-dependent transition of FPRL1-GFP protein from cell membrane to cytoplasm | bell-shaped dose-dependent cell migration stimulating activity | –
2 | CSCC[C@H](NC=O)C(=O)N[C@@H](Cc1ccccc1)C(=O)N[C@H](C(=O)N[C@@H](CC(N)=O)C(=O)N[C@@H](CCCNC(=N)N)C(=O)N[C@@H](Cc1c[nH]c2ccccc12)C(=O)N[C@@H](CC(C)C)C(=O)N[C@@H](Cc1ccc(O)cc1)C(=O)N[C@@H](CO)C(=O)N[C@H](C(=O)N[C@@H](CC(N)=O)C(=O)N[C@@H](Cc1c[nH]cn1)C(=O)N[C@@H](CCCCN)C(=O)O)[C@@H](C)O)C(C)C [pfCYOX-1(1-13)] (For-MFVNRWLYSTNHK-OH; C-terminus assumed) | concentration-dependent transition of FPRL1-GFP protein from cell membrane to cytoplasm | bell-shaped dose-dependent cell migration stimulating activity | –
3 | CHO-Met-Thr-Asn-Ile-Arg-Lys-Ser-His-Pro-Leu-Met-Lys-Ile-Ile-Asn ({CHO}-MTNIRKSHPLMKIIN) [porcine intrinsic FPRL1 ligand P1, purified from porcine stomach; N-terminal peptide of N-formylated porcine cytochrome b] | – | – | both activities are equivalent
4 | formyl-MTNIRKSHPLMKIINN (For-MTNIRKSHPLMKIINN) [16 amino acid-peptide comprising 15 amino acids at N-terminus of N-terminally formylated porcine cytochrome B] | – | – | both activities are equivalent

Reference: US7943137B2, “FPRL1 ligands and use thereof” (Takeda Pharmaceutical Company Limited, priority 2002, dated 2011)
